Legend:
[1] = molecular target: T1, rat FAAH (Rattus norvegicus, UniProt P97612); test: FAAH enzymatic assay (recombinant rFAAH protein, LC/MS); format: biochemical
T1 construct: made in house; host or cells: HEK293 cells stably overexpressing rat FAAH (HEK293-rFAAH), a gift from D. Piomelli; crude cell extract
T1 sequence (P97612 1-579): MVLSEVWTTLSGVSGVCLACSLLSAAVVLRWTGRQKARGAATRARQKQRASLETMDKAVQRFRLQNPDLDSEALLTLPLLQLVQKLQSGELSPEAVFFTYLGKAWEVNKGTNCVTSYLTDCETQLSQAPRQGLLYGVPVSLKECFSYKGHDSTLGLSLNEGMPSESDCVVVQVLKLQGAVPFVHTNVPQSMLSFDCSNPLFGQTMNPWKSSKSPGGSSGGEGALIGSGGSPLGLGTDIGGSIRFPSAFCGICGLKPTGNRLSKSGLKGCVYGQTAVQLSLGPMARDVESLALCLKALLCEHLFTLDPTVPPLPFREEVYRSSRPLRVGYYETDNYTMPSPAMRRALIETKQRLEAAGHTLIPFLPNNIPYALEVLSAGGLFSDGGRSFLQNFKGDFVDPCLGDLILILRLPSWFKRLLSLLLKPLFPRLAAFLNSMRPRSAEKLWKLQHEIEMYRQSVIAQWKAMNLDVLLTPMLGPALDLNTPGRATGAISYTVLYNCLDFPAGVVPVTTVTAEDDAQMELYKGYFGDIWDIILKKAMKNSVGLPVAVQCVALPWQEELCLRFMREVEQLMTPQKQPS
Method: HEK293-rNAAA or HEK293-rFAAH cells were harvested, washed with PBS, sonicated in 20 mM Tris-HCl (pH 7.5) containing 0.32 M sucrose, and centrifuged at 800 × g for 15 min at 4°C. The supernatants were collected and protein concentrations were measured by BCA protein assay kit (Pierce, Shanghai, China). […] The reactions were terminated by adding 0.2 mL methanol containing 1 nmol heptadecanoic acid and analyzed in LC/MS.
We use an Agilent 1200-LC system coupled to a 3200Q TRAP-MS detector equipped with an ESI interface (Agilent Technologies, Shanghai, China). […] The column temperature was set at 40°C. […] Mass spectrometer (MS) detection was ionized by positive-ion atmospheric pressure chemical ionization mode (APCI^+) and monitored in MRM mode. […] Quantifications were calculated at chromatographic peak areas by using Analyst® version 1.4.1. software (Applied Biosystems).

[2] = test system: IL-6; conditions: RAW264.7, 0.5 µg/ml LPS
Method: (§1) HEK293 cells overexpressing rat NAAA (HEK293-rNAAA) and rat FAAH (HEK293-rFAAH) were kind gifts from Dr. Daniele Piomelli in University of California, Irvine. The stable-overexpressing cell lines were maintained in Dulbecco’s Modified Eagle Medium (DMEM, Hyclone, Beijing, China) supplemented with 10% FBS (Gibco®, Shanghai, China) containing 0.3 mg/mL G418. Mouse macrophage cells RAW264.7 and Human Embryonic Kidney cell HEK293 cells were purchased from American Type Culture Collection (ATCC, Beijing, China) and maintained in DMEM supplemented with 10% FBS in humidified 5% CO2 atmosphere at 37°C. RAW264.7 cells were plated and cultured overnight until 80% confluence and then incubated with a series of compound 16 of different concentrations for 30 min before challenged by LPS.
(§2) Total RNA was extracted from RAW264.7 cells with TRIzol (Invitrogen) and quantified by spectrophotometer (Beckman coulter, Shanghai, China). cDNA was synthesized from 1 µg of total RNA by using ReverTra Ace qPCR RT Kit (TOYOBO, Shanghai, China) following the manufacturer’s instructions. Real-time quantitative PCR was performed in a 7300 Real Time PCR System (Applied Biosystems, Shanghai, China) and RNA levels were normalized using glyceraldehyde-3-phosphate dehydrogenase (GAPDH) as an internal standard.

[3] = test system: iNOS; conditions: RAW264.7, 0.5 µg/ml LPS
Method: as §1, §2

[4] = molecular target: T2, NAAA (Rattus norvegicus, UniProt Q5KTC7)
T2 sequence (Q5KTC7 34-362): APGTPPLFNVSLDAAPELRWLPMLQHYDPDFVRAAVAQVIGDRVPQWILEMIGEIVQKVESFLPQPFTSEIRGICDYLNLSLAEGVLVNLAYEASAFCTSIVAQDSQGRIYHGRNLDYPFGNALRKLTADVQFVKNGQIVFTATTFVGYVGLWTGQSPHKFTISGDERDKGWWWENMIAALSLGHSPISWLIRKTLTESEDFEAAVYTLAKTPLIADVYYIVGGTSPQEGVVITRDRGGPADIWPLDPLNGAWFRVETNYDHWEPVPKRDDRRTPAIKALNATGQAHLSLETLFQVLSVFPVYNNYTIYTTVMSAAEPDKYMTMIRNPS
Method: HEK293-rNAAA or HEK293-rFAAH cells were harvested, washed with PBS, sonicated in 20 mM Tris-HCl (pH 7.5) containing 0.32 M sucrose, and centrifuged at 800 × g for 15 min at 4°C. The supernatants were collected and protein concentrations were measured by BCA protein assay kit (Pierce, Shanghai, China). NAAA activity was measured by incubating 30 µg recombinant rNAAA protein with testing compound at 37°C for 30 min in 0.2 mL phosphate buffer (50 mM, pH 5.0) containing 0.1% Triton X-100, 3 mM DTT, and 25 µM heptadecenoylethanolamide as substrate. […] The reactions were terminated by adding 0.2 mL methanol containing 1 nmol heptadecanoic acid and analyzed in LC/MS.

[5] = molecular target: T2, NAAA; test: Rapid dilution NAAA assay; format: biochemical; design: made in house; host or cells: HEK293 cells stably overexpressing rat NAAA (HEK293-rNAAA), a gift from D. Piomelli; crude 800 x g supernatant of sonicated cells; conditions: pre-incubation 10-fold IC50, 100-fold dilution
Method: Rapid dilution assay was performed as previously described. Briefly, samples containing 100-fold concentrated rNAAA recombinant protein were pre-incubated with 10-fold the IC50-equivalent concentration of compound 16 or vehicle (1% DMSO) for 10 min at 37°C. Samples were then diluted 100-fold with assay buffer containing substrate to initiate reactions, and the time course of product formation was measured by LC/MS.

## O=C(CCc1ccc(-c2ccccc2)cc1)N1CCCC1 [Compound 16, 1–(2–Biphenyl–4–yl)ethyl–carbonyl pyrrolidine]
[1]; IC50 ± S.E.M., triplicate, 25 µM anandamide, pH 8.0
  IC50: > 100 µM
[1]; at concentration of 100 µM
  reduction of FAAH activity: no more than 30%
[2]
  LPS-induced IL-6 mRNA expression: reversed dose-dependently
[3]
  LPS-induced iNOS mRNA expression: reversed dose-dependently
[4]; 5µM compound 16, […], n = 3
  Vmax of NAAA activity: 5854 ± 511 pmol/min/mg
[4]; rapid dilution, dialysis and kinetic analysis
  mode of NAAA inhibition: reversible and competitive
[4]; read-out: Michaelis-Menten constant Km, 5µM compound 16, […]
  Km: 328 ± 98 µM
[4]; read-out: dissociation constant Ki, calculated from Km (inhibitor) = Km (1+[I]/Ki)
  Ki: 5.65 µM
[5]
  NAAA activity after rapid dilution of inhibitor-NAAA complex: almost completely restored the NAAA activity

From paper PMC3423427, “Design and Synthesis of Potent N-Acylethanolamine-hydrolyzing Acid Amidase (NAAA) Inhibitor as Anti-Inflammatory Compounds” (PLoS ONE, 2012)
